From patent publication US12084420B2, “Indoline compounds for inhibiting KIF18A” (Volastra Therapeutics, Inc., priority 2021, dated 2024)
Read-outs that look alike come from different tables or passages of the source.

Assays:
HCC15 cells = experiment: Cell viability of KIF18a-sensitive cell lines, HCC15 (Cell Titre-Glo, 7 days); format: cell-based; conditions: read-out: HCC-15 IC50
Method: (§1) Cell Viability of KIF18a-Sensitive Cell Lines
(§2) Cell lines were seeded as follows 24 hours before compound treatment: HCC15 (Korean Cell Line Bank) 600 cell/well, 95 μL of RPMI-1640 media supplemented with 100 units/mL penicillin, 100 units/mL streptomycin and 10% FBS; NIH:OVCAR-3 (ATCC), 1000 cell/well, 95 μL of RPMI-1640 media supplemented with 100 units/mL penicillin, 100 units/mL streptomycin, 0.01 mg/mL bovine insulin, and 20% FBS; JIMT-1 (Addexbio) 1000 cell/well, 95 μL of DMEM media supplemented with 100 units/mL penicillin, 100 units/mL streptomycin, and 10% FBS.
(§3) Test compounds were added to cells in a 20× dilution scheme by adding 5 μL of serially diluted compound to the plate, and the treated cells were incubated for an additional 7 days in a 37° C., 5% CO2 incubator. DMSO was used as the negative control (0% effect), and wells omitting cells were used as the positive control (100% effect). The cells were incubated for seven days, and cell viability determined via the Promega Cell Titre-Glo® Assay kit. Luminescence units were converted to ATP concentrations via an ATP standard curve (10 point, 2-fold dilution from 5 uM). % Inhibition was calculated for each well as: ([max−min]−[test−min])/[max−min]. IC50 values were calculated from concentration vs. % Inhibition data via a four-parameter variable slope model.

NIH:OVCAR-3 cells = experiment: Cell viability of KIF18a-sensitive cell lines, NIH:OVCAR-3 (Cell Titre-Glo, 7 days); format: cell-based; conditions: NIH-OVCAR3 cells, 7 days, Cell Titre-Glo, read-out: NIH-OVCAR3 IC50
Method: as §1, §2, §3

JIMT-1 cells = experiment: Cell viability of KIF18a-sensitive cell lines, JIMT-1 (Cell Titre-Glo, 7 days); format: cell-based; conditions: JIMT-1 cells, 7 days, Cell Titre-Glo, read-out: JIMT-1 IC50
Method: as §1, §2, §3

hKIF18A (1-374) = hKIF18A (1-374) (Homo sapiens (Human), UniProt Q8NI77); experiment: Inhibition of KIF18A microtubule-dependent ATPase activity (ADP-Glo); conditions: KIF18A microtubule-dependent ATPase activity, biochemical assay
hKIF18A (1-374), sequence (Q8NI77 whole entry, looked up): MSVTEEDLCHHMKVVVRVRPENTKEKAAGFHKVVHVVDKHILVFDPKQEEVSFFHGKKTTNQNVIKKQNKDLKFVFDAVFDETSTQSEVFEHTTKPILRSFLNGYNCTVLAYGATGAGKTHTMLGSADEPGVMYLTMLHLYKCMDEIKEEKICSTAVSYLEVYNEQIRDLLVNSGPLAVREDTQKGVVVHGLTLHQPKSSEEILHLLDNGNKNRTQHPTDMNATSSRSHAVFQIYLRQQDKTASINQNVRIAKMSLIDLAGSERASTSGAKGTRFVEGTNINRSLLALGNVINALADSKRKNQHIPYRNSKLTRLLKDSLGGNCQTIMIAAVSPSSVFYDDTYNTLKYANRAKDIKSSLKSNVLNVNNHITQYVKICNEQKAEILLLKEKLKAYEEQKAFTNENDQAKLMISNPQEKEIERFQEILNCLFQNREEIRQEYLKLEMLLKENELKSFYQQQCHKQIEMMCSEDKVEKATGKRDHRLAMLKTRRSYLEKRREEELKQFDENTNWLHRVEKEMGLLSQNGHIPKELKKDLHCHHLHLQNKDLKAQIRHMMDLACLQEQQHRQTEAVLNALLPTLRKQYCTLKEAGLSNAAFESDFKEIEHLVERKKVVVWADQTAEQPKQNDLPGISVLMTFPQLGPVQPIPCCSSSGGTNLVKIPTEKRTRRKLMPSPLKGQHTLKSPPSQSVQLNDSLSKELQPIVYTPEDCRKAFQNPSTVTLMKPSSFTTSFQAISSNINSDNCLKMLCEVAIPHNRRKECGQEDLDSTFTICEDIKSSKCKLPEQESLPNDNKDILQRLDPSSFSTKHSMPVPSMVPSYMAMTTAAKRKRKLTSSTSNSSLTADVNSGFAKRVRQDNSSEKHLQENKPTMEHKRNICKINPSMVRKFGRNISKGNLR
hKIF18A (1-374), sequence (Q2XVP4 whole entry partner, looked up): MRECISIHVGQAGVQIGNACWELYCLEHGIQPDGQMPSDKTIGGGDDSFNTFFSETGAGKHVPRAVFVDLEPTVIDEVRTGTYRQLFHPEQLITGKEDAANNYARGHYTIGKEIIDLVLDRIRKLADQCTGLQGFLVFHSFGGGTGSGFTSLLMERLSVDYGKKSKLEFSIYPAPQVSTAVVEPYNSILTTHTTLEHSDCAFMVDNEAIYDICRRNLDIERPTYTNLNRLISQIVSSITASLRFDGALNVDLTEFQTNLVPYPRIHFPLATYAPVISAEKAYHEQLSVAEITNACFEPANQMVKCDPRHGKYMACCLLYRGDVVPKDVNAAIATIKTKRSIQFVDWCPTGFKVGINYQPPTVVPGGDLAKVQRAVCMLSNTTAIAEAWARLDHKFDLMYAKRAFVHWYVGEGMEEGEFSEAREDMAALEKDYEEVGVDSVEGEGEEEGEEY
hKIF18A (1-374), sequence (P02554 whole entry partner, looked up): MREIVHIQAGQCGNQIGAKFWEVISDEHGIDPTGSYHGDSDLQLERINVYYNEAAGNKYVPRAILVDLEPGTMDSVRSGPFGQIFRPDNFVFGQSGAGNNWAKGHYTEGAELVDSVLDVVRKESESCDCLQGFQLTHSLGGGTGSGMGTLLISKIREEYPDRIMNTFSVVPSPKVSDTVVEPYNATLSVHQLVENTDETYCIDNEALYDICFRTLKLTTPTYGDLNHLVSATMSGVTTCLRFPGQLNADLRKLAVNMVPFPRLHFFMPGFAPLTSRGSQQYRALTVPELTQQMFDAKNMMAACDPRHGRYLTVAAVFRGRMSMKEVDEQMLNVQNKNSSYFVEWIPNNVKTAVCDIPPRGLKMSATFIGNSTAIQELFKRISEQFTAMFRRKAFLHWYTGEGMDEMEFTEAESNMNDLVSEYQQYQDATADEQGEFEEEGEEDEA

[1] = target: KIF18a-Microtubule Complex (Homo sapiens (Human), UniProt Q8NI77); experiment: Binding kinetics to KIF18a-microtubule complex (global progress curve analysis); conditions: for kon (on-rate from binding kinetics assay) / koff (off-rate from binding kinetics assay): global progress curve analysis; for Ki: read-out: KI (determined from binding kinetic assay koff/kon), koff/kon; for koff: read-out: koff (off-rate from binding kinetics assay)
KIF18a-Microtubule Complex, sequence (Q8NI77 whole entry, looked up): as the sequence (Q8NI77 whole entry, looked up) above
KIF18a-Microtubule Complex, sequence (Q2XVP4 whole entry partner, looked up): as the sequence (Q2XVP4 whole entry partner, looked up) above
KIF18a-Microtubule Complex, sequence (P02554 whole entry partner, looked up): as the sequence (P02554 whole entry partner, looked up) above
Method: Binding Kinetics to KIF18a-Microtubule Complex
Compound binding kinetics parameters (kon and koff) were determined by the method of global progress curve analysis (GPCA). […] ADP product levels were determined by the Promega® ADP-Glo assay. The time/dose-dependent progress curves were then globally fit to a Michaelis-Menten kinetics model with 1-step slow binding inhibition to derive both on-rate kon and off-rate koff values (Zhang, R., Wong, K. (2017): “High performance enzyme kinetics of turnover, activation and inhibition for translational drug discovery”, Expert Opinion on Drug Discovery, 2017 January; 12(1):17-37. doi: 10.1080/17460441.2017.1245721).

[2] = HCC15, 168 h, HCC-15 cells, 7 days, Cell Titre-Glo
[3] = HCC-15 cells, 7 days, Cell Titre-Glo

Row | SMILES | IC50 (HCC15 cells; [2]) [nM] | IC50 (hKIF18A (1-374)) [nM] | kon (on-rate from binding kinetics assay) [1] [M⁻¹ s⁻¹] | disc. t1/2 (dissociation half-life ln(2)/koff) [1] [h] | Ki [1] [nM] | also measured
1 | CC(C)(C)NS(=O)(=O)c1cccc(C(=O)N2CC3(CCC4(CC4)CC3)c3cc(NS(C)(=O)=O)c(F)cc32)c1 [Compound 309, N-(tert-butyl)-3-(6″-fluoro-5″-(methylsulfonamido)dispiro[cyclopropane-1,1′-cyclohexane-4′,3″-indoline]-1″-carbonyl)benzenesulfonamide] | 12 | 6.5 | – | – | – | IC50 (NIH:OVCAR-3 cells; Homo sapiens, OVCAR-3, 168 h): 12 nM; IC50 (JIMT-1 cells; Homo sapiens, 168 h): 9.4 nM
2 | CC(C)(C)NS(=O)(=O)c1cccc(C(=O)N2CC3(CCC4(CC4)CC3)c3cc(NS(=O)(=O)CCO)ccc32)c1 [Compound 148, N-(tert-butyl)-3-(5″-((2-hydroxyethyl)sulfonamido)dispiro [cyclopropane-1,1′-cyclohexane-4′,3″- indoline]-1″- carbonyl)benzenesulfonamide] | 36 | 12 | 13600 | 48 | 0.29 | koff [1]: 3.89e-06 s⁻¹
3 | CS(=O)(=O)Nc1ccc2c(c1)C1(CCCCC1)CN2C(=O)c1cccc(S(=O)(=O)N2CCC(F)(F)CC2)c1 [Compound 19, N-(1′-(3-((4,4-difluoropiperidin-1-yl)sulfonyl)benzoyl)spiro[cyclohexane-1,3′-indolin]-5′-yl)methanesulfonamide] | 92 | 32 | 14200 | 7.2 | 1.8 | koff [1]: 2.67e-05 s⁻¹
4 | CS(=O)(=O)Nc1ccc2c(c1)C1(CCC3(CC3)CC1)CN2C(=O)c1cccc(CN2CCC(F)(F)CC2)c1 [Compound 163, N-(1″-(3-((4,4-difluoropiperidin-1-yl)methyl)benzoyl)dispiro[cyclopropane-1,1′-cyclohexane-4′,3″-indolin]-5″- yl)methanesulfonamide] | 140 | 20 | – | – | – | IC50 (NIH:OVCAR-3 cells; Homo sapiens, OVCAR-3, 168 h): 190 nM; IC50 (JIMT-1 cells; Homo sapiens, 168 h): 120 nM
5 | CC(C)(C)NS(=O)(=O)c1cccc(C(=O)N2C[C@]3(CC[C@@H](C)CC3)c3cc(NS(C)(=O)=O)ccc32)c1 [Compound 140b] | – | – | 16100 | 8.7 | 1.4 | koff (off-rate from binding kinetics assay) [1]: 2.22e-05 s⁻¹; IC50 (HCC15 cells; [3]): 45 nM
6 | CS(=O)(=O)Nc1ccc2c(c1)C1(CCC3(CC3)CC1)CN2C(=O)c1cccc(S(=O)(=O)N2CC3(CCC3)C2)c1 [Compound 151, N-(1″-(3-((2-azaspiro[3.3]heptan-2-yl)sulfonyl)benzoyl)dispiro[cyclopropane-1,1′-cyclohexane-4′,3″-indolin]-5″- yl)methanesulfonamide] | 13 | 6.8 | 26700 | 61 | 0.12 | koff [1]: 3.06e-06 s⁻¹
7 | CC(C)(C)S(=O)(=O)Nc1cccc(C(=O)N2CC3(CCC4(CC4)CC3)c3cc(NS(C)(=O)=O)ccc32)c1 [Compound 355, 2-methyl-N-(3-(5″-(methylsulfonamido)dispiro[cyclopropane-1,1′-cyclohexane-4′,3″-indoline]-1″-carbonyl)phenyl)propane-2-sulfonamide] | 94 | 25 | – | – | – | IC50 (NIH:OVCAR-3 cells; Homo sapiens, OVCAR-3, 168 h): 110 nM; IC50 (JIMT-1 cells; Homo sapiens, 168 h): 120 nM
8 | CC(C)(C)NS(=O)(=O)c1cccc(C(=O)N2C[C@]3(CC[C@H](C)CC3)c3cc(NS(C)(=O)=O)ccc32)c1 [Compound 140a] | – | – | 13100 | 29 | 0.5 | koff (off-rate from binding kinetics assay) [1]: 6.67e-06 s⁻¹; IC50 (HCC15 cells; [3]): 10 nM
9 | CC1(NS(=O)(=O)c2cccc(C(=O)N3CC4(CCC5(CC5)CC4)c4cc(NS(C)(=O)=O)ccc43)c2)CCC1 [Compound 182, N-(1-methylcyclobutyl)-3-(5″- (methylsulfonamido)dispiro[cyclopropane-1,1′-cyclohexane-4′,3″-indoline]-1″-carbonyl)benzenesulfonamide] | 15 | 7.3 | 30600 | 24 | 0.26 | koff [1]: 8.06e-06 s⁻¹
10 | CS(=O)(=O)Nc1ccc2c(c1)C1(CCC3(CC3)CC1)CN2C(=O)c1ccc([C@@H](O)C2CCCC2)o1 (single isomer, unassigned) [Compound 352b] | – | – | – | – | – | IC50 (HCC15 cells; [3]): 19 nM; IC50 (NIH:OVCAR-3 cells): 27 nM; IC50 (JIMT-1 cells): 19 nM
11 | CC(C)(C)NS(=O)(=O)c1cccc(C(=O)N2CC3(CCC4(CC4)CC3)c3ccccc32)c1 [Compound 10, N-(tert-butyl)-3-(dispiro[cyclopropane-1,1′-cyclohexane-4′,3″-indoline]-1″- carbonyl)benzenesulfonamide] | 2200 | 270 | – | – | – | –
12 | O=C(c1cccc(S(=O)(=O)N2CCC(F)(F)CC2)c1)N1CC2(CCC3(CC3)CC2)c2cc(NS(=O)(=O)CCO)ccc21 [Compound 29, N-(1″-(3-((4,4-difluoropiperidin-1-yl)sulfonyl)benzoyl)dispiro[cyclopropane-1,1′-cyclohexane-4′,3″-indolin]-5″-yl)-2-hydroxyethane-1-sulfonamide] | 330 | 22 | – | – | – | –
13 | CS(=O)(=O)Nc1ccc2c(c1)C1(CCC3(CC3)CC1)CN2C(=O)c1ccc([C@H](O)C2CCCC2)o1 (single isomer, unassigned) [Compound 352a] | – | – | – | – | – | IC50 (HCC15 cells; [3]): 34 nM; IC50 (NIH:OVCAR-3 cells): 45 nM; IC50 (JIMT-1 cells): 40 nM
14 | CS(=O)(=O)Nc1ccc2c(c1)C1(CCCCC1)CN2C(=O)c1cccc(S(=O)(=O)C2CCCCC2)c1 [Compound 70, N-(1′-(3-(cyclohexylsulfonyl)benzoyl)spiro[cyclohexane-1,3′-indolin]-5′-yl)methanesulfonamide] | 590 | 30 | 10000 | 3.0 | 6.5 | koff [1]: 6.39e-05 s⁻¹
15 | CS(=O)(=O)Nc1ccc2c(c1)C1(CCC3(CC3)CC1)CN2C(=O)c1cccc(S(=O)(=O)N2CCC(F)(F)CC2)c1 [Compound 28, N-(1″-(3-((4,4-difluoropiperidin-1-yl)sulfonyl)benzoyl)dispiro[cyclopropane-1,1′-cyclohexane-4′,3″-indolin]-5″-yl)methanesulfonamide] | 24 | 10 | – | – | – | –
16 | CS(=O)(=O)Nc1ccc2c(c1)C1(CCCC1)CN2C(=O)c1cccc(S(=O)(=O)N2CCC(F)(F)CC2)c1 [Compound 18, N-(1′-(3-((4,4-difluoropiperidin-1-yl)sulfonyl)benzoyl)spiro[cyclopentane-1,3′-indolin]-5′-yl)methanesulfonamide] | – | 79 | – | – | – | IC50 (HCC15 cells; HCC15, 168 h): 160 nM
17 | CS(=O)(=O)Nc1ccc2c(c1)C1(CCC3(CC3)CC1)CN2C(=O)c1cccc(S(=O)(=O)N2CCCCC2)c1 [Compound 20, N-(1″-(3-(piperidin-1-ylsulfonyl)benzoyl)dispiro[cyclopropane-1,1′-cyclohexane-4′,3″-indolin]-5″- yl)methanesulfonamide] | 25 | 13 | – | – | – | –
18 | CS(=O)(=O)Nc1ccc2c(c1)C1(CCC3(CC3)CC1)CN2C(=O)c1cccc(S(=O)(=O)N2CC3(CCO3)C2)c1 [Compound 153, N-(1″-(3-((1-oxa-6-azaspiro[3.3]heptan-6-yl)sulfonyl)benzoyl)dispiro[cyclopropane-1,1′-cyclohexane-4′,3″-indolin]-5″- yl)methanesulfonamide] | 44 | 18 | – | – | – | –
19 | O=C(Nc1cccc(C(=O)N2CC3(CCCC3)c3c(F)cccc32)c1)NC1CC1 [Compound 2′, 1-cyclopropyl-3-(3-(4′-fluorospiro[cyclopentane-1,3′-indolin]-1′-carbonyl)phenyl)urea] | 2600 | 920 | – | – | – | –
